Assay results: ChEMBL document CHEMBL1201862, “PubChem BioAssay data set” (2004)
Activity calls are given as the source filed them.

Experiments:
Type in all cases: functional
[1] = molecular target: Peroxisome proliferator-activated receptor gamma/Nuclear receptor coactivator 2 (Homo sapiens, UniProt P37231);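 also: agonist potency for raising coactivator recruitment to the receptor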
[2] = molecular target: Peroxisome proliferator-activated receptor gamma/Nuclear receptor coactivator 3 (Homo sapiens, UniProt P37231);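 also: agonist potency for raising coactivator recruitment to the receptor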
[3] = molecular target: Peroxisome proliferator-activated receptor gamma/Nuclear receptor coactivator 1 (Homo sapiens, UniProt P37231);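 also: agonist potency as compounds enhance coactivator SRC-1 recruitment to PPARgamma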
[4] = molecular target: Photoreceptor-specific nuclear receptor (Homo sapiens, UniProt Q9Y5X4); assay: NR2E3 inverse agonists, dose response, biochemical, TR-FRET (AID 463256)
[5] = molecular target: T1, Corticotropin-releasing factor receptor 2/Corticotropin-releasing factor-binding protein (Homo sapiens, UniProt P24387+Q13324); assay: Dose Response confirmation of uHTS hits for small molecule antagonists of the CRF-binding protein and CRF-R2 receptor complex.; settings: read-out: IC50_Mean
T1 sequence (Q13324 whole entry): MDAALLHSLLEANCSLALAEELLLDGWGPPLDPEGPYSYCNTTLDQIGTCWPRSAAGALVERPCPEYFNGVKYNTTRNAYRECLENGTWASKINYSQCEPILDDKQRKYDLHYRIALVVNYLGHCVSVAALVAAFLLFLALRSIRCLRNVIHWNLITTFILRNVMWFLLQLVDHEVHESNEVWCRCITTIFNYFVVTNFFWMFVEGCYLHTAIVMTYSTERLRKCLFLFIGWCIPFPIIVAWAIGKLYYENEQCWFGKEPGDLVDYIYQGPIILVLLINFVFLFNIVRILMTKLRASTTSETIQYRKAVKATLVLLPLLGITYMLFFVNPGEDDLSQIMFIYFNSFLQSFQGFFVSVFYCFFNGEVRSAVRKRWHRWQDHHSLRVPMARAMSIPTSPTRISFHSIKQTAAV
T1 sequence (P24387 whole entry): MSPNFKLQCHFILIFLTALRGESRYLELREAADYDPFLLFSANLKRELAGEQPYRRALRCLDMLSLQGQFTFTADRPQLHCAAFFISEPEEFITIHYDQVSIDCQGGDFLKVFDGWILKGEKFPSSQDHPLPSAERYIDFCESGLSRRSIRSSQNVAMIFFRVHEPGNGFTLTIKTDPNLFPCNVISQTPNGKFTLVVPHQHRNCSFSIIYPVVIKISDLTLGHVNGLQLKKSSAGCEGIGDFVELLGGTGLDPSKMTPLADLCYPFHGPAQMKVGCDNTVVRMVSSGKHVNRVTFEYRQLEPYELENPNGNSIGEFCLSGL

[6] = molecular target: Peroxisome proliferator-activated receptor gamma/Nuclear receptor corepressor 2 (Homo sapiens, UniProt P37231+Q9Y618); assay: Counterscreen for NR2E3 inverse agonists: TR-FRET-based biochemical high throughput dose response assay to identify inverse agonists of the interaction between peroxisome proliferator-activated receptor gamma (PPARg) and nuclear receptor co-repressor 2 (NCOR2).
[7] = molecular target: T1, Corticotropin-releasing factor receptor 2/Corticotropin-releasing factor-binding protein; assay: activators of CRF receptor 2 with binding protein – uHTS hits, confirmation (AID 602473); settings: read-out: EC50_Mean
[8] = Luminescence-based counterscreen assay for KLF5 inhibitors: dose response cell-based high throughput screening assay to identify cytotoxic compounds using the IEC-6 intestinal epithelial cell line. [Related pubchem assays: 1700 (Primary screen.), 1834 (Confirmation screen.), 1858 (Summary AID.), 1905 (Counterscreen.)]

Photoreceptor-specific nuclear receptor, sequence (Q9Y5X4 whole entry): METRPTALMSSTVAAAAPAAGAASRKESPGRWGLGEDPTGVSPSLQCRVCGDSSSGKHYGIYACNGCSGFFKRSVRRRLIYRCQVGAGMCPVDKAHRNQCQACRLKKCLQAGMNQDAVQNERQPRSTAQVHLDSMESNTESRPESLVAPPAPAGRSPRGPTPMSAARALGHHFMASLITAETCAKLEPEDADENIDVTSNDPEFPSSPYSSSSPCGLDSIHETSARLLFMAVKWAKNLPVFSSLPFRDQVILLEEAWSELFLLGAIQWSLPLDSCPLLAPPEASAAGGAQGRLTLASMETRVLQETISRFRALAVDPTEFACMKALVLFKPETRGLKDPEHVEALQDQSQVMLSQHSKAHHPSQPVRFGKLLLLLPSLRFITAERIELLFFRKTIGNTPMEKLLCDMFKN
Peroxisome proliferator-activated receptor gamma/Nuclear receptor coactivator 3, sequence (P37231 whole entry): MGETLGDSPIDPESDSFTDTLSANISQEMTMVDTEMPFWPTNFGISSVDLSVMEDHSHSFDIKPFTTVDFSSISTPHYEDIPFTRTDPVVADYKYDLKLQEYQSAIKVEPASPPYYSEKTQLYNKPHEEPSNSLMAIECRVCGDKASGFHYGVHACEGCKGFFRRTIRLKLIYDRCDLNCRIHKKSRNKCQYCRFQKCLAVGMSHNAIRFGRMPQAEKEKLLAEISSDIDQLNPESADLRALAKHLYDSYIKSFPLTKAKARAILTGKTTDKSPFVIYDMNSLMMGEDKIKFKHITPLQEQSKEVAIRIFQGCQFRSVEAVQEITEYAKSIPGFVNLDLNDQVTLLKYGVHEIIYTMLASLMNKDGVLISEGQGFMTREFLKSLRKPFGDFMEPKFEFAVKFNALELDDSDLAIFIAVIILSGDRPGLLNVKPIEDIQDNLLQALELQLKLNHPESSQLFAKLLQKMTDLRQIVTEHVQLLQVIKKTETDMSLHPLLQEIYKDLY
Peroxisome proliferator-activated receptor gamma/Nuclear receptor coactivator 3, sequence (Q9Y6Q9 whole entry, further chain): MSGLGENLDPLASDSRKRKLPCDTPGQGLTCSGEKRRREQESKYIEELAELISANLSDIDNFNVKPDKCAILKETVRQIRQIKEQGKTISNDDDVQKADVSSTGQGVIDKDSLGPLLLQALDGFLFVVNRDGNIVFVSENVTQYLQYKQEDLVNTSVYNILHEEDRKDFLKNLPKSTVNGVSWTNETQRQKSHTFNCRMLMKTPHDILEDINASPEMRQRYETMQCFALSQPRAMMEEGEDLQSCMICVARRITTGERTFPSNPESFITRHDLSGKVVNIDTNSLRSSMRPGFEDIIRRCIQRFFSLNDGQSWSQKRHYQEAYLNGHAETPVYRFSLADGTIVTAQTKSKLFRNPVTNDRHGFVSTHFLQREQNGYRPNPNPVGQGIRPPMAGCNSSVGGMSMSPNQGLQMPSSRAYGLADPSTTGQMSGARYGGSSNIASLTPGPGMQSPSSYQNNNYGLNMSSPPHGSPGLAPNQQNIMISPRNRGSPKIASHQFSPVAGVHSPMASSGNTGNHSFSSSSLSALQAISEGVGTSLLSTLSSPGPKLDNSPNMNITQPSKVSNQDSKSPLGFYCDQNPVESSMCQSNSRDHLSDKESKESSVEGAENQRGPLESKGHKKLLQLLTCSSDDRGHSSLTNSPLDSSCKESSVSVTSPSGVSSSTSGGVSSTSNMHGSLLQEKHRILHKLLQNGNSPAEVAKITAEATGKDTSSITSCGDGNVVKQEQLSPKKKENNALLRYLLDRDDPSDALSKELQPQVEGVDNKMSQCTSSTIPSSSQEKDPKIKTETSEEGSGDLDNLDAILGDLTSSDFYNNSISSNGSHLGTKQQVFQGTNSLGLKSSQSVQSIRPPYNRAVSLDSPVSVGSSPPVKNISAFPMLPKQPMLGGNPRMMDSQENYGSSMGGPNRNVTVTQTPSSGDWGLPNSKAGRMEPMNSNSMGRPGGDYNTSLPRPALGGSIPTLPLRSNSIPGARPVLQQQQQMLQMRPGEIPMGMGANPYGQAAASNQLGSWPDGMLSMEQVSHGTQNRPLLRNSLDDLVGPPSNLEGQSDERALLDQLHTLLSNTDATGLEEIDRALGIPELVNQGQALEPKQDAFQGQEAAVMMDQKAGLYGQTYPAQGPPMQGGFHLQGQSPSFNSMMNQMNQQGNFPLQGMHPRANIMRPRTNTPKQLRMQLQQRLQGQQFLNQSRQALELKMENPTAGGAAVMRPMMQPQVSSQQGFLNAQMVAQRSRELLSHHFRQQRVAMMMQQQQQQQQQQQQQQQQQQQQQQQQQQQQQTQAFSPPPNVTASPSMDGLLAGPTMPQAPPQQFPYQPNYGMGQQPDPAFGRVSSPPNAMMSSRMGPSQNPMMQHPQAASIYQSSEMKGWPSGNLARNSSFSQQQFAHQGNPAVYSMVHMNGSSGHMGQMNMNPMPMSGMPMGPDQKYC
Peroxisome proliferator-activated receptor gamma/Nuclear receptor coactivator 2, sequence (P37231 whole entry): as the sequence (P37231 whole entry) above
Peroxisome proliferator-activated receptor gamma/Nuclear receptor coactivator 2, sequence (Q15596 whole entry, further chain): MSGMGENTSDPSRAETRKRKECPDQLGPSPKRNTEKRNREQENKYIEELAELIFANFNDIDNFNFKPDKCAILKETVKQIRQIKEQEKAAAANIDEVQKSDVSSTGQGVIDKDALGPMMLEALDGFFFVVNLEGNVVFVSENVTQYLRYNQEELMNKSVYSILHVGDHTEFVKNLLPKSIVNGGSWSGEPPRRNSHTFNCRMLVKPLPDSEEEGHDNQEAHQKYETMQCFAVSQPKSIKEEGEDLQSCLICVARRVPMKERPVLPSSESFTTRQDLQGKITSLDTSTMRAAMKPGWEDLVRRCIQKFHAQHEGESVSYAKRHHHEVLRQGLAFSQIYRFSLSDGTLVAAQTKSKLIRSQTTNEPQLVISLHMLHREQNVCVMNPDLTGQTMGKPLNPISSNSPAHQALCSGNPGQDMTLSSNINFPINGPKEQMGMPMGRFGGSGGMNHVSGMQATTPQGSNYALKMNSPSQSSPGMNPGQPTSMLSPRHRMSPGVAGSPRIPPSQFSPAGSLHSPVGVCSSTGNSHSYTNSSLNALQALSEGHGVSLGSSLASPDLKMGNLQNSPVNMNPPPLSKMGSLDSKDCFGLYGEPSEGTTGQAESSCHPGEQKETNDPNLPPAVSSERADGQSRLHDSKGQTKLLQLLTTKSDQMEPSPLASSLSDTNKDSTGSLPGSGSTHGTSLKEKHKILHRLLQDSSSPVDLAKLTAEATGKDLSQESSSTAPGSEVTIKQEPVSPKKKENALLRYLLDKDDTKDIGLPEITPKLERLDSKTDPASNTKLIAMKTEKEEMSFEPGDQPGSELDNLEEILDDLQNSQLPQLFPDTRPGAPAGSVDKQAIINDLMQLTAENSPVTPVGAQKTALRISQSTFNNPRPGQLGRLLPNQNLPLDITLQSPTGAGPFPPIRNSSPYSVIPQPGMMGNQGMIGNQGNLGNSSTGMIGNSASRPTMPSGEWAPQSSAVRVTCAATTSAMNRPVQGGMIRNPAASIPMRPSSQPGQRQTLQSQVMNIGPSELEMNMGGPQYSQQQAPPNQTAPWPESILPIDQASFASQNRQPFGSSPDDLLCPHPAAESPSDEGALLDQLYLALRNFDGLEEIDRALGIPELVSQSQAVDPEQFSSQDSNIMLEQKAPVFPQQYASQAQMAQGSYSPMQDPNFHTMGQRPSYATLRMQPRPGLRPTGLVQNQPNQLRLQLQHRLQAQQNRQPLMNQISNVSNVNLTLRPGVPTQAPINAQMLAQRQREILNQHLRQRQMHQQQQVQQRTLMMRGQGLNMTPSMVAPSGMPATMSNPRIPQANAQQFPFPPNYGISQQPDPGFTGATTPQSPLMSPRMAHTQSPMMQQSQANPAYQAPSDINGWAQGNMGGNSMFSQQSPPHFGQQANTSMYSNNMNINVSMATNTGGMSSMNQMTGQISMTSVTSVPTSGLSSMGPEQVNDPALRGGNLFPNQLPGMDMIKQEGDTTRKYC

Q: Which EC50 [1] does the source give for `Cc1cc(C)c(S(=O)(=O)Nc2ccc3[nH]c(O)nc3c2)c(C)c1` here?
A: > 79.4 µM (not active)

Q: What about the EC50 [2] of the same compound?
A: > 79.4 µM (not active)

Q: What about the EC50 [3] of the same compound?
A: > 79.4 µM (not active)

Q: What does the source list for `CC(=O)c1ccc(NC(=O)CSc2ccc(-c3ccc4c(c3)OCO4)nn2)cc1`?
A: IC50 [4]: 3.53 µM (active); IC50 [5]: > 47.1 µM (inactive); IC50 [6]: 2.9 µM (active); EC50 [7]: > 53 µM (inactive)

Q: With `COc1ccc2nc(SCC(=O)NC3CCCC3)c(C)cc2c1` as the compound, how does the IC50 [8] read?
A: 16 µM (not active)
